Ends that are not written are not given here.
Experiments:
[1] = system: Y79 cells; test: Peptide uptake by flow cytometry (FACS); format: cell-based; conditions: 4 h; for FITC positive population in M2: Y79 RB cells, flow cytometry; for M1 population: Y79 cells, histogram statistic in text, in % (unit assumed)
Experimental: (§1) The Y79 cells were seeded on the lysine (0.01 mg/ml)-coated glass slide. The cells were cultured overnight and treated with different concentrations (50 or 100 µM) of FITC-tagged Pep-A for 4 h, for studying the localization and internalization of the peptide by fluorescence microscopy. The FITC-labeled peptide A molecules (molecular mass 771.2) were custom synthesized (CPS 1468-1, custom peptide synthesis, USV limited India) with ~95 % purity obtained by HPLC method. The GNPs and GNPs-Pep-A conjugates were doped with the R6G dye as described by Kalmodia et al., for the internalization study (Kalmodia et al. [2013]). The internalization of the peptide, R6G-doped GNPs and GNPs-Pep-A after 4 h was qualitatively detected by Zeiss LSM, 710 laser microscope supplied by Axio vision (Germany). […] Y79 cells were seeded at 2 × 10^5 cells/well in six-well plates and treated with 50 and 100 µM concentrations of Pep-A for 4 h. The cells were then spun at 1500 rpm for 5 min, washed with PBS buffer, and then resuspended in FACS buffer. The cells were then analyzed for uptake of the peptide using FACS Calibur (BD Biosciences, CA, USA) by means of CELL QUEST PRO software. The fluorescence of FITC-stained cells was excited with an argon laser at 488 nm, and the emissions were detected at 530 nm. The overlay graph and scattered plot were used to confirm the FITC positive cell population.

[2] = system: Y79 retinoblastoma cells; test: Cytotoxicity (MTT) assay, Y79; format: cell-based; conditions: 24 and 48 h, 10-100 µM
Experimental: (§2) Y79 retinoblastoma and MIOM1 cells were seeded at 5 × 10^3 cells/well in 96-well plates and incubated at 37 °C overnight. The cells were then treated with varying concentrations (10, 30, 60, and 100 µM) of Pep-A and Pep-B in a fresh medium and incubated for specific time periods (24 and 48 h). At the end of the incubation, 10 µl of MTT [3-(4, 5-dimethylthiazol-2-yl)-2, 5-diphenyltetrazolium bromide; 5 mg/ml] was added to the cells with fresh medium (100 µl) and incubated at 37 °C until formazan crystals were formed. The formazan crystals were dissolved in 100 µl of DMSO, and the reading was taken at 570 nm (BioTek, ELISA, USA). Cell viability was calculated as Test OD/Control OD × 100.
Cytotoxic effects of GNPs and Pep-A were evaluated by MTT assay as per the protocol described in “Cytotoxicity assay” section. Antioxidant effects of GNPs-Pep-A, bioconjugate were evaluated by measuring the cellular ROS and SOD enzyme activity by similar methods as described in “Measurement of intracellular ROS levels on peptide treatment using 2′, 7′ dichlorodihydrofluorescein (DCF) assay” and “SOD activity measurement” sections, respectively. […] Total RNA was isolated using Trizol, and concentration of RNA was quantified using a Nanodrop (Biospec-Nano,Shimadzu, Biotech, Japan). […] Quantification of target gene expression was performed in triplicate in a 20-µl reaction mixture containing 0.1 µg of cDNA, specific primers (Table 1), and SYBR green reagent in 96-well plates on a real-time PCR system (Applied Biosystems, Singapore). GAPDH and β actin were used as internal controls, and the detection was carried out by measuring the binding of fluorescence dye SYBR green to double-stranded DNA. After cycling, relative quantitation of the tested gene cDNA against the internal control was performed using the ΔCT method. The relative amount of gene-specific mRNA to housekeeping gene was calculated using 2^−ΔΔCt, where Ct, the number of cycles at which amplification reaches a threshold, is determined using SDS software version 1.3.

[3] = system: Y79 cells; test: Internalization by fluorescence microscopy; format: cell-based; conditions: Y79 RB cells; FITC-labeled Pep-A, R6G dye-doped GNPs and GNPs-Pep-A; 4 h (method), 3 h (Fig. 5 legend)
Experimental: as §1

[4] = system: MIOM1 (Muller-glial) non-neoplastic cells; test: Cytotoxicity (MTT) assay, MIOM1; format: cell-based, human; conditions: 24 and 48 h, 10-100 µM
Experimental: as §2

PHCKRM [Pep-A, Pro-His-Cys-Lys-Arg-Met]
uptake into the Y79 cells (in words) ([1]; FACS, 50 and 100 µM): concentration-dependent uptake
FITC positive population in M2 ([1]; 50 µM FITC-tagged Pep-A, Fig. 4b): 99%
FITC positive population in M2 ([1]; 100 µM FITC-tagged Pep-A, Fig. 4c): 99%
M1 population ([1]; 50 µM of Pep-A, control 99.99): 99.97
M1 population ([1]; second mention printed as 50 µM of Pep-A): 99.95
cytotoxicity to Y79 cells (in words) [2]: no cytotoxicity
cytotoxicity to Y79 cells (in words) ([2]; listed as pep-A): no toxicity
internalization by fluorescence microscopy (in words) [3]: internalization
cytotoxicity to non-cancerous MIO-M1 cells (in words) [4]: no cytotoxicity
cytotoxicity to non-cancerous MIO-M1 cells (in words) ([4]; listed as pep-A): no toxicity

TRNYYVRAVL [Pep-B, Thr-Arg-Asn-Tyr-Tyr-Val-Arg-Ala-Val-Leu]
cytotoxicity to Y79 cells (in words) [2]: no cytotoxicity
cytotoxicity to non-cancerous MIO-M1 cells (in words) [4]: no cytotoxicity

Reference: article PMC4747989, “Bio-conjugation of antioxidant peptide on surface-modified gold nanoparticles: a novel approach to enhance the radical scavenging property in cancer cell” (Cancer Nanotechnology, 2016)
